Reference: patent publication US9611248B2, “Chemical compounds” (Syngenta Participations AG, priority 2013, dated 2017)

The compounds below were run on a variety of test species (assay: Post-emergence herbicidal activity). Conditions: rate 250 g/ha, evaluated after 13 days.
Assay type: in vivo
Design: key to ABUTH (Abutilon theophrasti) damage score / AMARE (Amaranthus retroflexus) damage score / ALOMY (Alopecurus myosuroides) damage score / ECHCG (Echinochloa crus-galli) damage score / ZEAMX (Zea mays) damage score / SOLNI (Solanum nigrum) damage score: 0 = no damage to plant, 5 = total damage to plant
Method in brief: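 Plants grown for 8 days in pots were sprayed post-emergence with compound in acetone/water (50:50) containing 0.5% Tween 20. They were kept in a glasshouse at 24/16 °C day/night, 14 h light, 65% humidity, watered twice daily. Damage was scored after 13 days (0 none to 5 total).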

| SMILES | ABUTH (Abutilon theophrasti) damage score | ALOMY (Alopecurus myosuroides) damage score | AMARE (Amaranthus retroflexus) damage score | ECHCG (Echinochloa crus-galli) damage score | SETFA (Setaria faberi) damage score | ZEAMX (Zea mays) damage score |
| --- | --- | --- | --- | --- | --- | --- |
| COC1=C(C)C(=O)N(c2cc(C(F)(F)F)c(OCc3ccco3)cn2)C1O (stereo not drawn) [AD86] | 4 | 2 | 5 | 1 | 3 | 0 |
| COC1=C(C)C(=O)N(c2cc(C(F)(F)F)c(OCCc3cccs3)cn2)C1O (stereo not drawn) [AD76] | 4 | 2 | 4 | 1 | 3 | 1 |
| COC1=C(C)C(=O)N(c2cc(Cl)c(-c3ccccc3)cn2)C1O (stereo not drawn) [AD70] | 4 | 3 | 5 | 1 | 3 | 1 |

Same assay, conditions: rate 1000 g/ha, evaluated after 13 days

| SMILES | ABUTH (Abutilon theophrasti) damage score | ALOMY (Alopecurus myosuroides) damage score | AMARE (Amaranthus retroflexus) damage score | ECHCG (Echinochloa crus-galli) damage score | SETFA (Setaria faberi) damage score | ZEAMX (Zea mays) damage score | SOLNI (Solanum nigrum) damage score |
| --- | --- | --- | --- | --- | --- | --- | --- |
| CCOc1nnc(N2C(=O)C(C)=C(OC)C2O)cc1C(C)C (stereo not drawn) [BD7] | 5 | 5 | 5 | 5 | 5 | 3 | – |
| CCC1=C(Cl)C(O)N(c2cc(C(C)(C)C#N)ncn2)C1=O (stereo not drawn) [CA3] | 1 | 0 | 1 | 0 | 0 | 0 | – |
| COC1=C(C)C(=O)N(c2ccc(C(F)(F)F)cn2)C1O (stereo not drawn) [AD35] | – | 3 | 5 | 3 | 4 | 0 | 5 |
| CCc1cc(N2C(=O)C(C)=C(OC)C2O)ncc1-c1ccccc1F (stereo not drawn) [AD105] | 5 | 2 | 5 | 3 | 4 | 1 | – |
| COC1=C(C)C(=O)N(c2nccc(C(C)(C)C)n2)C1O (racemic) [DD1] | 4 | 4 | 4 | 5 | 4 | 1 | – |
| CC(C)(C)C1=C(Cl)C(O)N(c2cc(C(F)(F)F)ccn2)C1=O (stereo not drawn) [AA41] | 0 | 0 | 0 | 3 | 0 | 2 | – |
| CCC/C=C/c1cnc(N2C(=O)C(C)=C(OC)C2O)cc1C(F)(F)F (stereo not drawn) [AD13] | 5 | 5 | 5 | 5 | 5 | 1 | – |
| COC(=O)c1cnc(N2C(=O)C(C)=C(OC)C2O)cc1C(F)(F)F (stereo not drawn) [AD37] | 4 | 3 | 5 | 3 | 2 | 0 | – |
| COC1=C(C)C(=O)N(c2cc(C(C)(C)C#N)ncn2)C1O (racemic) [CD8] | 5 | 5 | 5 | 5 | 5 | 3 | – |
| CCCCNS(=O)(=O)c1cnc(N2C(=O)C(C)=C(OC)C2O)cc1C (stereo not drawn) [AD96] | 3 | 4 | 5 | 4 | 5 | 0 | – |
| COC1=C(C)C(=O)N(c2cc(C)c(-c3ccccc3C)cn2)C1O (stereo not drawn) [AD66] | 4 | 1 | 5 | 4 | 5 | 0 | – |
| COC1=C(C)C(=O)N(c2cc(C(F)(F)F)ccn2)C1O (stereo not drawn) [AD34] | 5 | 5 | 5 | 5 | 5 | 0 | – |
| C=CCOc1nnc(N2C(=O)C(C)=C(OC)C2O)cc1C(C)C (stereo not drawn) [BD6] | 1 | 1 | 0 | 1 | 2 | 1 | – |
| COC1=C(Cl)C(O)N(c2cc(C(F)(F)F)ccn2)C1=O (stereo not drawn) [AF2] | 5 | 4 | 5 | 5 | 5 | 3 | – |
| COC1=C(C)C(=O)N(c2cc(C)c(-c3ccc(OC)c(OC)c3)cn2)C1O (stereo not drawn) [AD117] | 5 | 2 | 5 | 1 | 4 | 0 | – |
| COC1=C(C)C(=O)N(c2cc(C(C)(C)C)c(N3CC(F)(F)C3)nn2)C1O (stereo not drawn) [BD12] | 5 | 4 | 5 | 5 | 5 | 2 | – |
| COC1=C(C)C(=O)N(c2cc(C)c(-c3ccccc3[N+](=O)[O-])cn2)C1O (stereo not drawn) [AD120] | 5 | 2 | 5 | 4 | 4 | 0 | – |
| CC1=C(Br)C(O)N(c2cc(C(F)(F)F)ncn2)C1=O (stereo not drawn) [CB1] | 1 | 1 | 1 | 1 | 0 | 1 | – |
| COC1=C(C)C(=O)N(c2cc(C(F)(F)F)c(-c3ccc(F)cc3F)cn2)C1O (stereo not drawn) [AD131] | 5 | 2 | 5 | 4 | 4 | 1 | – |
| COC1=C(C)C(=O)N(c2cc(C(F)(F)F)c(-c3ccc(F)cc3)cn2)C1O (stereo not drawn) [AD59] | 5 | 4 | 5 | 4 | 5 | 1 | – |
| COC1=C(C)C(=O)N(c2cc(C(F)(F)F)c(C(=O)NC(C)C)cn2)C1O (stereo not drawn) [AD53] | 5 | 5 | 5 | 5 | 5 | 5 | – |
